In patent publication US8933224B2, “Triazine derivatives” (Pfizer Inc., priority 2013, dated 2015):

Biological target: rat PDE10 enzyme (Rattus norvegicus (Rat), UniProt Q9QYJ6)
Test: PDE10 scintillation proximity assay (SPA), inhibition of rat PDE10 enzyme activity
Type: biochemical
Conditions: geometric mean of 2-4 determinations unless otherwise indicated (b: ≧5 determinations; c: single determination)
Method: PDE10 activity was measured using a scintillation assay (SPA-based method) similar to that previously described by Seeger, T. F. et al., Brain Research 985 (2003) 113-126. The compounds' relative activity as PDE10 inhibitors was investigated by assaying a fixed amount of enzyme in the presence of the test compound and low substrate concentration (cAMP) such that an IC50 could be determined. […] The assay is performed in a 384-well format with 50 μL assay buffer (50 mM TRIS pH 7.5; 1.3 mM MgCl2; 0.01% Brij) containing enough PDE10 to convert ˜20% of 20 nM ^3H-cAMP, and a range of inhibitors. Reactions are incubated for 30 minutes at 25° C. The addition of 20 μL of 8 mg/ml yttrium silicate SPA beads (PerkinElmer) stops the reaction. The plates are sealed (TopSeal, PerkinElmer) and the beads are allowed to settle for 8 hrs, after which they are read on the Trilux Microbeta overnight. ^1Rat enzyme preparation:^2Human enzyme preparation:
The recombinant Bacmid was isolated and used to transfect sf9 insect cells to generate a viral stock. To generate cell paste for purification, sf21 cells were infected with the virus stock and cells were harvested 72 hours after infection as described in Seeger, T. F. et al., Brain Research 985 (2003) 113-126. Insect cell paste was lysed and after centrifugation, the supernatant was chromatographed on Ni-NTA agarose (Qiagen) followed by Mono Q (GE Healthcare Life Sciences) as described in Seeger, T. F. et al., Brain Research 985 (2003) 113-126.

Chain of rat PDE10 enzyme (Q9QYJ6 24-794): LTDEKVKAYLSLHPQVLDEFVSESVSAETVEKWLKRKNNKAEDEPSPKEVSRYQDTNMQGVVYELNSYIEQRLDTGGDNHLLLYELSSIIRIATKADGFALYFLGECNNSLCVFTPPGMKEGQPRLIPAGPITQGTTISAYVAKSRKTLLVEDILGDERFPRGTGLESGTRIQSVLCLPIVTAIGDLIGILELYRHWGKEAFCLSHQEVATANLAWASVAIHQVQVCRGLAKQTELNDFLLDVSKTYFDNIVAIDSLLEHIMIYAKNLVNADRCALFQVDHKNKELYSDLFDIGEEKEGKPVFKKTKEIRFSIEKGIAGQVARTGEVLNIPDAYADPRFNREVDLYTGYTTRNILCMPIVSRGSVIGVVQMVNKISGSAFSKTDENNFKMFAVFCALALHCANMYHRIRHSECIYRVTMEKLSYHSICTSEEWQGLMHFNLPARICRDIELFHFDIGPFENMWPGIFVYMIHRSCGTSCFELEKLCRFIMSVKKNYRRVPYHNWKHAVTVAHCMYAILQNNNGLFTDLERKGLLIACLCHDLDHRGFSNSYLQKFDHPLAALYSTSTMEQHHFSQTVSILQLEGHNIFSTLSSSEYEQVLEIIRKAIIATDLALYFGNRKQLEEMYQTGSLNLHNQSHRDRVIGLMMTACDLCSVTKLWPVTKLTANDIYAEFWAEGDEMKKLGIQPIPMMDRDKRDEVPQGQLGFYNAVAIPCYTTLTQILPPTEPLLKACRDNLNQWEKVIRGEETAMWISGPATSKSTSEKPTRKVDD

Structure (SMILES) | IC50 [nM]
Cc1nc([C@H]2CCOC2)c2c(N3CCc4ncncc4C3)ncnn12 [Example 63, 6-{7-methyl-5-[(3R)-tetrahydrofuran-3-yl]imidazo[5,1-f][1,2,4]triazin-4-yl}-5,6,7,8-tetrahydropyrido[4,3-d]pyrimidine] | 133
COc1ccc2c(n1)CN(c1ncnn3c(C)nc(-c4ccccc4F)c13)CC2 [Example 69, 7-[5-(2-fluorophenyl)-7-methylimidazo[5,1-f][1,2,4]triazin-4-yl]-2-methoxy-5,6,7,8-tetrahydro-1,7-naphthyridine] | 7.3
Cc1ccc2c(n1)CN(c1ncnn3c(C)nc(-c4ccccc4F)c13)CC2 [Example 73, 7-[5-(2-fluorophenyl)-7-methylimidazo[5,1-f][1,2,4]triazin-4-yl]-2-methyl-5,6,7,8-tetrahydro-1,7-naphthyridine] | 6.81
Cc1nc2c(o1)CN(c1ncnn3c(C)nc([C@H]4CCOC4)c13)CC2 [Example 76, 7-methyl-4-(2-methyl-6,7-dihydro[1,3]oxazolo[5,4-c]pyridin-5(4H)-yl)-5-[(3R)-tetrahydrofuran-3-yl]imidazo[5,1-f][1,2,4]triazine] | 22.9
COc1cc2c(cc1OC)CN(c1ncnn3c(C)nc(C4CCCO4)c13)CC2 (centres unmarked) [Example 77, 6,7-dimethoxy-2-[7-methyl-5-(tetrahydrofuran-2-yl)imidazo[5,1-f][1,2,4]triazin-4-yl]-1,2,3,4-tetrahydroisoquinoline] | 30
Cc1nc([C@H]2CCCO2)c2c(N3CCc4nc(C5CC5)ncc4C3)ncnn12 [Example 79] | 11.2
CCc1nn(C)c2c1CN(c1ncnn3c(C)nc([C@H]4CCCO4)c13)CC2 [Example 80, 4-(3-ethyl-1-methyl-1,4,6,7-tetrahydro-5H-pyrazolo[4,3-c]pyridin-5-yl)-7-methyl-5-[(2R)-tetrahydrofuran-2-yl]imidazo[5,1-f][1,2,4]triazine] | 17.6
Cc1nc2c(s1)CN(c1ncnn3c(C)nc([C@H]4CCCO4)c13)CC2 [Example 81] | 9.73
COc1cc2c(cc1OC)CN(c1ncnn3c(C)nc([C@H]4CCCO4)c13)CC2 [Example 82, 6,7-dimethoxy-2-{7-methyl-5-[(2R)-tetrahydrofuran-2-yl]imidazo[5,1-f][1,2,4]triazin-4-yl}-1,2,3,4-tetrahydroisoquinoline] | 37.2
COc1cc2c(cc1OC)CN(c1ncnn3c(C)nc([C@@H]4CCCO4)c13)CC2 [Example 83, 6,7-dimethoxy-2-{7-methyl-5-[(2S)-tetrahydrofuran-2-yl]imidazo[5,1-f][1,2,4]triazin-4-yl}-1,2,3,4-tetrahydroisoquinoline] | 29.7
Cc1nn(C)c2c1CN(c1ncnn3c(C)nc([C@H]4CCOC4)c13)CC2 [Example 84, 4-(1,3-dimethyl-1,4,6,7-tetrahydro-5H-pyrazolo[4,3-c]pyridin-5-yl)-7-methyl-5-[(3R)-tetrahydrofuran-3-yl]imidazo[5,1-f][1,2,4]triazine] | 8.1
Cc1nc(CC(C)C)c2c(N3CCc4ncccc4C3)ncnn12 [Example 97, 6-[7-methyl-5-(2-methylpropyl)imidazo[5,1-f][1,2,4]triazin-4-yl]-5,6,7,8-tetrahydro-1,6-naphthyridine] | 9.05
Cc1nc([C@H]2CCOC2)c2c(N3CCc4c(cnn4C4CC4)C3)ncnn12 [Example 98, 4-(1-cyclopropyl-1,4,6,7-tetrahydro-5H-pyrazolo[4,3-c]pyridin-5-yl)-7-methyl-5-[(3R)-tetrahydrofuran-3-yl]imidazo[5,1-f][1,2,4]triazine] | 11.6
Cc1nc([C@H]2CCOC2)c2c(N3CCc4nn(C)cc4C3)ncnn12 [Example 99, 7-methyl-4-(2-methyl-2,4,6,7-tetrahydro-5H-pyrazolo[4,3-c]pyridin-5-yl)-5-[(3R)-tetrahydrofuran-3-yl]imidazo[5,1-f][1,2,4]triazine] | 6.52

The next compounds have a lower IC50 than those just listed; values first:

IC50 [nM] | Structure (SMILES)
< 3.52 | Cc1nc(C2CCOCC2)c2c(N3CCc4nc(C5CC5)ncc4C3)ncnn12 [Example 61, 2-cyclopropyl-6-[7-methyl-5-(tetrahydro-2H-pyran-4-yl)imidazo[5,1-f][1,2,4]triazin-4-yl]-5,6,7,8-tetrahydropyrido[4,3-d]pyrimidine]
3.87 | COc1cc2c(cc1OC)CN(c1ncnn3c(C)nc(-c4ccccc4C)c13)CC2 [Example 62, 6,7-dimethoxy-2-[7-methyl-5-(2-methylphenyl)imidazo[5,1-f][1,2,4]triazin-4-yl]-1,2,3,4-tetrahydroisoquinoline]
1.18 | COc1cc2c(cc1OC)CN(c1ncnn3c(C)nc(CC(C)C)c13)CC2 [Example 64, 2-(5-isobutyl-7-methylimidazo[5,1-f][1,2,4]triazin-4-yl)-6,7-dimethoxy-1,2,3,4-tetrahydroisoquinoline]
2.98 | Cc1nc(-c2ccccc2F)c2c(N3CCc4cccnc4C3)ncnn12 [Example 65]
2.6 | COc1ccc2c(n1)CCN(c1ncnn3c(C)nc(-c4ccccc4F)c13)C2 [Example 66, 6-[5-(2-fluorophenyl)-7-methylimidazo[5,1-f][1,2,4]triazin-4-yl]-2-methoxy-5,6,7,8-tetrahydro-1,6-naphthyridine]
0.325 | Cc1nc(-c2ccccc2F)c2c(N3CCc4nc(N(C)C)ccc4C3)ncnn12 [Example 67, 6-[5-(2-fluorophenyl)-7-methylimidazo[5,1-f][1,2,4]triazin-4-yl]-N,N-dimethyl-5,6,7,8-tetrahydro-1,6-naphthyridin-2-amine]
0.895 | COc1nccc2c1CN(c1ncnn3c(C)nc(-c4ccccc4F)c13)CC2 [Example 68, 2-[5-(2-fluorophenyl)-7-methylimidazo[5,1-f][1,2,4]triazin-4-yl]-8-methoxy-1,2,3,4-tetrahydro-2,7-naphthyridine]
3.89 | Cc1nc([C@H]2CCCO2)c2c(N3CCc4noc(C5CC5)c4C3)ncnn12 [Example 78, 4-(3-cyclopropyl-6,7-dihydro[1,2]oxazolo[4,3-c]pyridin-5(4H)-yl)-7-methyl-5-[(2R)-tetrahydrofuran-2-yl]imidazo[5,1-f][1,2,4]triazine]
1.26 | COc1ccc2c(c1)CCN(c1ncnn3c(C)nc([C@H]4CCOC4)c13)C2 [Example 87, 6-methoxy-2-{7-methyl-5-[(3R)-tetrahydrofuran-3-yl]imidazo[5,1-f][1,2,4]triazin-4-yl}-1,2,3,4-tetrahydroisoquinoline]
0.561 | Cc1nc([C@@H]2CCOC2)c2c(N3CCc4nc(C5CC5)nc(C(F)(F)F)c4C3)ncnn12 [Example 89, 2-cyclopropyl-6-{7-methyl-5-[(3S)-tetrahydrofuran-3-yl]imidazo[5,1-f][1,2,4]triazin-4-yl}-4-(trifluoromethyl)-5,6,7,8-tetrahydropyrido[4,3-d]pyrimidine]
0.761 | Cc1nn(C)c2c1CN(c1ncnn3c(C)nc([C@@H]4CCOC4)c13)CC2 [Example 93, 4-(1,3-dimethyl-1,4,6,7-tetrahydro-5H-pyrazolo[4,3-c]pyridin-5-yl)-7-methyl-5-[(3S)-tetrahydrofuran-3-yl]imidazo[5,1-f][1,2,4]triazine]
2.89 | Cc1nc(CC(C)C)c2c(N3CCc4noc(C5CC5)c4C3)ncnn12 [Example 94, 4-(3-cyclopropyl-6,7-dihydro[1,2]oxazolo[4,3-c]pyridin-5(4H)-yl)-7-methyl-5-(2-methylpropyl)imidazo[5,1-f][1,2,4]triazine]
